Experimental findings from PMC7994567, “Characterization of a novel sn1,3 lipase from Ricinus communis L. suitable for production of oleic acid-palmitic acid-glycerol oleate” (Scientific Reports, 2021) are described below.

Structures are written as SMILES.

The test system of this assay is T1, RcLipase.
T1 construct: catalytic Ser146, Asp211, His276; oxyanion Thr63, Leu147
In words: hydrolysis kinetics, Michaelis-Menten non-linear regression. The assay is classed as biochemical, Ricinus communis. To be noted: 20 mM Tris-HCl pH 8.0, 40 °C; substrate 0-1 mM.

With `CCCCCCCC/C=C\CCCCCCCC(=O)OCC(COC(=O)CCCCCCC/C=C\CCCCCCCC)OC(=O)CCCCCCC/C=C\CCCCCCCC` [Triolein], the Michaelis constant (Km) stood at 210 ± 10 µM. The figure for `CCCCCCCCCCCCCCCC(=O)OCC(COC(=O)CCCCCCCCCCCCCCC)OC(=O)CCCCCCCCCCCCCCC` [Tripalmitin] is 170 ± 10 µM.

A word on the Km: it is the concentration of substrate that gives half-maximal velocity.
